Reference: patent US20040023972A1, “Use of substituted imidazo[1,2-a]-pyridin-, -pyrimidin-and-pyrazin-3-yl-amine derivatives in the preparation of medicaments for inhibiting NOS” (Gruenenthal GmbH, priority 2000, published 2004)

Target: T1, NO synthase (Rattus norvegicus, UniProt P29476)
T1 construct: the supernatant was then removed by decantation and frozen in portions at −80° C; from tissue; host or cells: rat cerebellum, 20,000 g supernatant of homogenate
Assay: HTS-NOS assay (NOS assay): conversion of radioactive arginine, cation-exchanger filter plate
Type: biochemical
Conditions: read-out: HTS-NOS assay: % inhibition (10 μM)
Method in brief: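 Rat cerebellum supernatant as NOS source, incubated with radiolabelled arginine plus cofactors including NADPH at 25 °C for 5-60 min depending on enzyme activity. Unconverted arginine was trapped on a cation-exchange filter plate, citrulline washed out, and bound arginine counted by scintillation; % inhibition versus no-compound reactions.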

Structure (SMILES)	inhibition at 10 µM
CC(=O)N(c1c(-c2ccc(C(=O)O)s2)nc2ccccn12)C(C)(C)CC(C)(C)C [Example 176, 5-{3-[acetyl-(1,1,3,3-tetramethyl-butyl)-amino]-imidazo[1,2-a]pyridin-2-yl}-thiophene-2-carboxylic acid]	50%
CC(=O)N(c1c(-c2ccc(Cl)cc2Cl)nc2cc(C)cc(C)n12)C(C)(C)CC(C)(C)C [Example 177, N-[2-(2,4-dichloro-phenyl)-5,7-dimethyl-imidazo[1,2-a]pyridin-3-yl]-N-(1,1,3,3-tetramethyl-butyl)-acetamide]	67%
CC(=O)N(c1c(-c2ccc([N+](=O)[O-])o2)nc2cc(C)ccn12)C1CCCCC1 [Example 178, N-cyclohexyl-N-[7-methyl-2-(5-nitro-furan-2-yl)-imidazo[1,2-a]pyridin-3-yl]-acetamide]	64%
CC(=O)N(c1c(C)cccc1C)c1c(C(C)(C)C)nc2cc(C)cc(C)n12 [Example 179, N-(2-tert-butyl-5,7-dimethyl-imidazo[1,2-a]pyridin-3-yl)-N-(2,6-dimethylphenyl)-acetamide]	60%
COc1ccccc1-c1nc2cc(C)cc(C)n2c1N(C(C)=O)c1c(C)cccc1C [Example 180, N-(2,6-dimethyl-phenyl)-N-[2-(2-methoxy-phenyl)-5,7-dimethyl-imidazo[1,2-a]-pyridin-3-yl]-acetamide]	54%
CC(=O)N(c1c(-c2cccc(O)c2)nc2cc(C)cc(C)n12)C(C)(C)CC(C)(C)C [Example 181, N-[2-(3-hydroxy-phenyl)-5,7-dimethyl-imidazo[1,2-a]pyridin-3-yl]-N-(1,1,3,3-tetramethyl-butyl)-acetamide]	60%
CC(=O)N(c1c(C)cccc1C)c1c(-c2ccccc2F)nc2cc(C)cc(C)n12 [Example 182, N-(2,6-dimethyl-phenyl)-N-[2-(2-fluoro-phenyl)-5,7-dimethyl-imidazo[1,2-a]-pyridin-3-yl]-acetamide]	53%
CC(=O)N(c1c(-c2ccc(C(=O)O)s2)nc2cccc(C)n12)C(C)(C)C [Example 183, 5-[3-(acetyl-tert-butyl-amino)-5-methyl-imidazo[1,2-a]pyridin-2-yl]-thiophene-2-carboxylic acid]	50%
COc1ccccc1-c1nc2cc(C)ccn2c1N(C(C)=O)c1c(C)cccc1C [Example 184, N-(2,6-dimethyl-phenyl)-N-[2-(2-methoxy-phenyl)-7-methyl-imidazo[1,2-a]-pyridin-3-yl]-acetamide]	51%
CC(=O)N(c1c(-c2ccc(C)cc2)nc2cc(C)ccn12)C(C)(C)CC(C)(C)C [Example 185, N-(7-methyl-2-p-tolyl-imidazo[1,2-a]pyridin-3-yl)-N-(1,1,3,3-tetramethyl-butyl)-acetamide]	55%
CC(=O)N(c1c(-c2ccc(C(=O)O)o2)nc2cc(C)ccn12)C(C)(C)CC(C)(C)C [Example 186, 5-{3-[acetyl-(1,1,3,3-tetramethyl-butyl)-amino]-7-methyl-imidazo[1,2-a]pyridin-2-yl}-furan-2-carboxylic acid]	65%
CC(=O)N(c1c(-c2cccnc2)nc2cc(C)ccn12)C1CCCCC1 [Example 187, N-cyclohexyl-N-(7-methyl-2-pyridin-3-yl-imidazo[1,2-a]pyridin-3-yl)-acetamide]	67%
CC(=O)N(c1c(-c2ccc(C3OCCO3)o2)nc2cc(C)cc(C)n12)C(C)(C)CC(C)(C)C [Example 188, N-[2-(5-[1,3]dioxolan-2-yl-furan-2-yl)-5,7-dimethyl-imidazo[1,2-a]pyridin-3-yl]-N-(1,1,3,3-tetramethyl-butyl)-acetamide]	50%
CC(=O)N(c1c(C)cccc1C)c1c(-c2cc3ccccc3o2)nc2cc(C)cc(C)n12 [Example 189, N-(2-benzofuran-2-yl-5,7-dimethyl-imidazo[1,2-a]pyridin-3-yl)-N-(2,6-dimethylphenyl)-acetamide]	63%
CC(=O)N(c1c(-c2ccco2)nc2cc(C)ccn12)C(C)(C)C [Example 190, N-tert-butyl-N-(2-furan-2-yl-7-methyl-imidazo[1,2-a]pyridin-3-yl)-acetamide]	69%
CC(=O)N(c1c(-c2ccccn2)nc2cc(C)ccn12)C(C)(C)C [Example 191, N-tert-butyl-N-(7-methyl-2-pyridin-2-yl-imidazo[1,2-a]pyridin-3-yl)-acetamide]	57%
CC(=O)N(c1c(-c2cccnc2)nc2cc(C)cc(C)n12)C1CCCCC1 [Example 192, N-cyclohexyl-N-(5,7-dimethyl-2-pyridin-3-yl-imidazo[1,2-a]pyridin-3-yl)-acetamide]	72%
CC(=O)N(c1c(-c2cccc(Cl)c2Cl)nc2cc(C)cc(C)n12)C(C)(C)CC(C)(C)C [Example 193, N-[2-(2,3-dichloro-phenyl)-5,7-dimethyl-imidazo[1,2-a]pyridin-3-yl]-N-(1,1,3,3-tetramethyl-butyl)-acetamide]	55%
COc1cccc(-c2nc3cc(C)cc(C)n3c2N(C(C)=O)C(C)(C)CC(C)(C)C)c1OC [Example 194, N-[2-(2,3-dimethoxy-phenyl)-5,7-dimethyl-imidazo[1,2-a]pyridin-3-yl]-N-(1,1,3,3-tetramethyl-butyl)-acetamide]	59%
CC(=O)N(c1c(C)cccc1C)c1c(-c2cccc(Oc3ccc(Cl)cc3)c2)nc2ccccn12 [Example 195, N-{2-[3-(4-chloro-phenoxy)-phenyl]-imidazo[1,2-a]pyridin-3-yl}-N-(2,6-dimethyl-phenyl)-acetamide]	54%
CC(=O)N(c1c(-c2ccc(C3OCCO3)o2)nc2cc(C)ccn12)C(C)(C)CC(C)(C)C [Example 196, N-[2-(5-[1,3]dioxolan-2-yl-furan-2-yl)-7-methyl-imidazo[1,2-a]pyridin-3-yl]-N-(1,1,3,3-tetramethyl-butyl)-acetamide]	54%
CC(=O)N(c1c(-c2ccc(C(=O)O)o2)nc2cc(C)cc(C)n12)C1CCCCC1 [Example 197, 5-[3-(acetyl-cyclohexyl-amino)-5,7-dimethyl-imidazo[1,2-a]pyridin-2-yl]-furan-2-carboxylic acid]	70%
CC(=O)N(c1c(-c2ccc([N+](=O)[O-])o2)nc2cc(C)ccn12)C(C)(C)C [Example 198, N-tert-butyl-N-[7-methyl-2-(5-nitro-furan-2-yl)-imidazo[1,2-a]pyridin-3-yl]-acetamide]	54%
CC(=O)N(c1c(-c2cc3ccccc3c3ccccc23)nc2cc(C)ccn12)C(C)(C)C [Example 208, N-tert-butyl-N-(7-methyl-2-phenanthren-9-yl-imidazo[1,2-a]pyridin-3-yl)-acetamide]	63%

Further lines, results first:

inhibition at 10 µM	Structure (SMILES)
57%	COc1ccccc1-c1nc2cc(C)ccn2c1N(C(C)=O)C(C)(C)CC(C)(C)C [Example 199, N-[2-(2-methoxy-phenyl)-7-methyl-imidazo[1,2-a]pyridin-3-yl]-N-(1,1,3,3-tetramethyl-butyl)-acetamide]
58%	CC(=O)N(c1c(-c2ccc(C)o2)nc2ccccn12)C(C)(C)CC(C)(C)C [Example 200, N-[2-(5-methyl-furan-2-yl)-imidazo[1,2-a]pyridin-3-yl]-N-(1,1,3,3-tetramethylbutyl)-acetamide]
54%	CC(=O)N(c1c(-c2ccc(C(=O)O)o2)nc2cc(C)ccn12)C(C)(C)C [Example 201, 5-[3-(acetyl-tert-butyl-amino)-7-methyl-imidazo[1,2-a]pyridin-2-yl]-furan-2-carboxylic acid]
57%	CC(=O)N(c1c(-c2cc(C)c(C)o2)nc2ccccn12)C(C)(C)CC(C)(C)C [Example 202, N-[2-(4,5-dimethyl-furan-2-yl)-imidazo[1,2-a]pyridin-3-yl]-N-(1,1,3,3-tetramethyl-butyl)-acetamide]
60%	CC(=O)N(c1c(-c2ccco2)nc2cc(C)cc(C)n12)C1CCCCC1 [Example 203, N-cyclohexyl-N-(2-furan-2-yl-5,7-dimethyl-imidazo[1,2-a]pyridin-3-yl)-acetamide]
54%	CC(=O)N(c1c(-c2cccc3ccccc23)nc2cc(C)ccn12)C(C)(C)C [Example 204, N-tert-butyl-N-(7-methyl-2-naphthalen-1-yl-imidazo[1,2-a]pyridin-3-yl)-acetamide]
52%	CC(=O)N(c1c(-c2ccc(C(=O)O)s2)nc2cnccn12)C(C)(C)CC(C)(C)C [Example 205, 5-{3-[acetyl-(1,1,3,3-tetramethyl-butyl)-amino]-imidazo[1,2-a]pyrazin-2-yl}-thiophene-2-carboxylic acid]
54%	CCCCN(C(C)=O)c1c(-c2ccccc2C)nc2ncccn12 [Example 206, N-butyl-N-(2-o-tolyl-imidazo[1,2-a]pyrimidin-3-yl)acetamide]
51%	COc1ccc(-c2nc3cc(C)ccn3c2N(C(C)=O)c2c(C)cccc2C)cc1OC [Example 207, N-[2-(3,4-dimethoxy-phenyl)-7-methyl-imidazo[1,2-a]pyridin-3-yl]-N-(2,6-dimethyl-phenyl)-acetamide]
62%	CC(=O)N(c1c(C)cccc1C)c1c(-c2ccccc2F)nc2cc(C)ccn12 [Example 209, N-(2,6-dimethyl-phenyl)-N-[2-(2-fluoro-phenyl)-7-methyl-imidazo[1,2-a]pyridin-3-yl]-acetamide]
53%	COc1ccccc1-c1nc2c(C)cccn2c1N(C(C)=O)C(C)(C)CC(C)(C)C [Example 210, N-[2-(2-methoxy-phenyl)-8-methyl-imidazo[1,2-a]pyridin-3-yl]-N-(1,1,3,3-tetramethyl-butyl)-acetamide]
73%	CC(=O)N(c1c(C)cccc1C)c1c(-c2cccc(O)c2)nc2cc(C)cc(C)n12 [Example 211, N-(2,6-dimethyl-phenyl)-N-[2-(3-hydroxy-phenyl)-5,7-dimethyl-imidazo[1,2-a]-pyridin-3-yl]-acetamide]
